Key:
[1] = J. Pharm. Pharmacol. 1994, 46: 714-717; cited from earlier work
[2] = Detaching force of films, probe tack tester (Example 1); assay type: physicochemical; details: films on polyethylene terephthalate; compared with HPC, HPMC and PHEMA; probe tack tester (FIG. 1)
Description: Pervaleryl-β-cyclodextrin (TV-β-CyD)-containing absolute ethanol solution (concentration: 150 mg/ml) was added dropwise onto a backing membrane (polyethylene terephthalate film) using a microsyringe, and allowed to stand at 25° C. for 24 hours to evaporate ethanol, whereby films of TV-β-CyD having adhesion were obtained.
The detaching force on the films of TV-β-CyD and on the films derived from various hydrophilic macromolecules (hydroxypropylcellulose (HPC), hydroxypropyl methylcellulose (HPMC) and polyhydroxyethyl methacrylate (PHEMA)) was measured using a probe tack tester (produced by Rigaku Kogyo Co.). The films of hydrophilic macromolecules were prepared as described with respect to TV-β-CyD.

[3] = tested on: cutis of the back of female hairless mice; experiment: Cutis irritativeness, histology of back skin of hairless mice (Example 2); assay type: in vivo; details: 16 hours, light microscopy
Description: There was stuck 150 mg of TV-β-CyD, in the shape of a circle with a diameter of […], on the back of female hairless mice at the age of around 7 weeks (weight: […]), and 16 hours later, the cutis was extirpated. The extirpated cutis was fixed with 20% neutrally-buffered formalin solution and embedded in paraffin according to a usual manner, and tissue sections were prepared using a microtome. These sections were double stained with haematoxylin and Eosine, and observed by a light microscope. Untreated cutis was used as control. Moreover, a commercially available adhesive tape for patch test was applied on the same mice under the same condition, and, thereafter, the cutis tissue of the applied portion was extirpated for comparison.

SMILES	drug release rate, compared with other acylated β-CyDs [1]	adhesion (detaching force), in comparison with hydrophilic macromolecules [2]	peeling of corneum ([3]; 150 mg, compared with commercially available adhesive tape for patch test)	abnormality such as inflammatory cellular infiltration ([3]; other sites (control))
CCCC(=O)OC[C@H]1O[C@@H]2O[C@H]3[C@H](OC(=O)CCC)[C@@H](OC(=O)CCC)[C@@H](O[C@H]4[C@H](OC(=O)CCC)[C@@H](OC(=O)CCC)[C@@H](O[C@H]5[C@H](OC(=O)CCC)[C@@H](OC(=O)CCC)[C@@H](O[C@H]6[C@H](OC(=O)CCC)[C@@H](OC(=O)CCC)[C@@H](O[C@H]7[C@H](OC(=O)CCC)[C@@H](OC(=O)CCC)[C@@H](O[C@H]8[C@H](OC(=O)CCC)[C@@H](OC(=O)CCC)[C@@H](O[C@H]1[C@H](OC(=O)CCC)[C@H]2OC(=O)CCC)O[C@@H]8COC(=O)CCC)O[C@@H]7COC(=O)CCC)O[C@@H]6COC(=O)CCC)O[C@@H]5COC(=O)CCC)O[C@@H]4COC(=O)CCC)O[C@@H]3COC(=O)CCC [TB-β-CyD, perbutanoyl-β-cyclodextrin]	remarkably retards the drug release rate	–	–	–
CCCCC(=O)OC[C@H]1O[C@@H]2O[C@H]3[C@H](OC(=O)CCCC)[C@@H](OC(=O)CCCC)[C@@H](O[C@H]4[C@H](OC(=O)CCCC)[C@@H](OC(=O)CCCC)[C@@H](O[C@H]5[C@H](OC(=O)CCCC)[C@@H](OC(=O)CCCC)[C@@H](O[C@H]6[C@H](OC(=O)CCCC)[C@@H](OC(=O)CCCC)[C@@H](O[C@H]7[C@H](OC(=O)CCCC)[C@@H](OC(=O)CCCC)[C@@H](O[C@H]8[C@H](OC(=O)CCCC)[C@@H](OC(=O)CCCC)[C@@H](O[C@H]1[C@H](OC(=O)CCCC)[C@H]2OC(=O)CCCC)O[C@@H]8COC(=O)CCCC)O[C@@H]7COC(=O)CCCC)O[C@@H]6COC(=O)CCCC)O[C@@H]5COC(=O)CCCC)O[C@@H]4COC(=O)CCCC)O[C@@H]3COC(=O)CCCC [TV-β-CyD, Pervaleryl-β-cyclodextrin]	–	strongest in adhesion	peeling of corneum in the same degree as in the case of the commercially available adhesive tape	no abnormality such as inflammatory cellular infiltration

From patent US5904929A, “Acylated cyclodextrin-containing pharmaceutical composition” (Janssen Pharmaceutica, N.V., priority 1997, dated 1999)
